Assay [1] has as its system Streptozotocin (STZ)-induced diabetic mice. The experiment in a line: Glucose tolerance assay in type I diabetic mice. Type of assay: in vivo. The method, then: Streptozotocin (STZ)-induced diabetic mice were administered orally with Compound 1 (50 mg/kg). STZ-induced diabetic mice are a well-known mouse model of type I diabetes (insulin dependent). See, e.g., Liu I M, et al., Neuroscience Letters 2001; 307: 81-84.
Two hours later, normal mice, STZ-induced diabetic mice, and the Compound 1-treated STZ-mice as described were subjected to a glucose tolerance assay. Briefly, all of the mice were orally administered with 1 g/kg glucose and the blood glucose levels of these mice were examined at 30, 60, 90, 120 and 150 minutes. In the normal and STZ-diabetic mice, the blood glucose levels elevated 30 minutes after uptake of glucose.
Alternatively, STZ-induced diabetic mice were treated with Compound 1 orally (100 mg/kg) for 14 days. These mice were then orally administered with glucose at a dose of 2 g/kg. Their blood glucose levels were examined 15, 45, 75, and 105 minutes after glucose administration.

In assay [2] the test system is C2C12 mycrotubes. Briefly: Insulin sensitivity assay (glucose uptake in presence of insulin). Format: cell-based. The following applies: in the presence of insulin 100 nM. The method, then:
Differentiated C2C12 mycrotubes (American Type Culture Collection: ATCC) were used to conduct an insulin sensitivity assay, which was performed based on the method as described in Experimental and Molecular Medicine, Vol. 39, No. 2, 222-229, 2007. Briefly, the cells were incubated with different concentrations of Compound 1 in the presence of insulin 100 nM, and then the glucose uptake was measured. AMPK activator AICAR (5-amino-4-carboxamide imidazole riboside 5′-phosphate, […]) was used as a positive control.

The test system of assay [3] is C2C12 mycrotubes. Briefly: Glucose consumption/uptake assay. Format: cell-based. To be noted: [14C]2-DG, incubated with compounds for 1 hour. The method, then: Differentiated C2C12 mycrotubes (American Type Culture Collection: ATCC) were used to conduct a glucose consumption/uptake assay, which was performed based on the method as described in Experimental and Molecular Medicine, Vol. 39, No. 2, 222-229, 2007. Briefly, the C2C12 cells were pretreated with 0.5 μCi [^14C]2-DG for 20 min and then incubated with compounds for 1 hour to determine glucose uptake by radio activity. All values are expressed as the means±S.E. of three experiments.

Assay [4] has as its system Glut4 (glucose transporter-4). The experiment in a line: Glucose transporter-4 (Glut4) expression assay in soleus muscles. The following applies: STZ-induced diabetic mice, 100 mg/kg orally for 14 days, western blot. Type of assay: in vivo. The method, then: GLUT4 plays an important role in insulin-induced glucose uptake to maintain normal blood glucose levels. In this study, STZ-induced diabetic mice were treated with Compound 1 orally (100 mg/kg) for 14 days; and then normal mice, STZ-induced diabetic, and the Compound 1-treated STZ-mice as described were analyzed for the Glut4 expression in soleus muscles based on the method as described in Biochem J. 1996; 313(Pt 1): 133-140). Briefly, at the end of the experimental period, animals were sacrificed by exsanguinations under diethyl ether anesthesia. Soleus muscles from each animal were excised and weighed. The soleus muscles were homogenized in lysis buffer and centrifugation, and then went to determine the GLUT4 protein expression by western blot analysis.
On the technique in general: Immunoblotting shows a protein as a band on a membrane.

Another assay has as its system PEPCK mRNA. The experiment in a line: Phosphoenolpyruvate carboxykinase (PEPCK) mRNA expression assay in liver. Format: in vivo. To be noted: STZ-induced diabetic mice, 100 mg/kg orally for 14 days, RT-PCR. The method, then:
PEPCK is known as a key enzyme that controls gluconeogenesis in the liver. In this study, STZ-induced diabetic mice were treated with Compound 1 orally (100 mg/kg) for 14 days, and then normal mice, STZ-induced diabetic, and the Compound 1-treated STZ-mice described above were analyzed for the PEPCK mRNA expression in liver based on the method as described in Bulletin of Experimental Biology and Medicine 1979; 87: 568-571. Briefly, at the end of the experimental period, animals were sacrificed by exsanguinations under diethyl ether anesthesia. Livers from each animal were excised and weighed. The liver homogenates were prepared to determine the PEPCK mRNA expression by RT-PCR analysis.

In assay [5] the test system is db/db mice. Briefly: Glucose tolerance assay in type II diabetic mice. Type of assay: in vivo. To be noted: 100 mg/kg/day orally 28 days or 30 mg/kg/day i.p. 21 or 28 days. The method, then: Insulin-resistant C57BL/6J-Leprdb/Lepr^db (hereafter, db/db) mice are a well-known mouse model of type II diabetes. See, e.g., Metabolism. 2000; 49:22-31). In this study, the db/db mice (Jackson Laboratory) were orally administered with Compound 1 (100 mg/kg/day) for 28 days, or administered with Compound 1 (30 mg/kg/day) via intraperitoneal (i.p.) injection for 21 days or 28 days. Two hours later, normal mice, db/db-mice, and the Compound 1-treated db/db-mice were subjected to a glucose tolerance assay as described in Example 1. FIGS. 6 to 8 show the results.

For assay [6], the system named is db/db mice. Briefly: HbA1C (Haemoglobin A1C) test in type II diabetic mice. Type of assay: in vivo. To be noted: 100 mg/kg/day orally for 28 days. Here is the method:
In the blood stream, glucose sticks to the haemoglobin to form a “glycosylated haemoglobin” molecule, called haemoglobin A1C or HbA1C. The more glucose in the blood, the more haemoglobin A1C or HbA1C will be present in the blood. The HbA1C test is currently one of the common ways to check if diabetes is under control. See, e.g. Diabetes Care. 2001; 24:465-471.
In this study, the db/db mice (Jackson Laboratory) were orally administered with Compound 1 (100 mg/kg/day) for 28 days. Subsequently, normal mice, db/db-mice, and the Compound 1-treated db/db-mice were subjected to a HbA1C test, which was conducted based on a method as described in Life Sci. 2005; 77:1391-403. Briefly, at the end of the experimental period, animals were sacrificed by exsanguinations under diethyl ether anesthesia. Plasma was separated from the blood by centrifugation. HbA1c in blood was measured by the standardized method.

The test system of assay [7] is db/db mice. The experiment in a line: HOMA-IR test in type II diabetic mice. Type of assay: in vivo. The following applies: 100 mg/kg/day orally for 28 days. Here is the method:
HOMA-IR is expressed by an empirical mathematical formula based on fasting plasma glucose and fasting plasma insulin levels that was developed as a surrogate measurement of in vivo insulin sensitivity: HOMA value for insulin resistance: (HOMA-IR)=fasting insulin (μU/ml)×fasting glucose (mmol/l)/22.5. See, e.g., Biol. Pharm. Bull. 2007; 30:2196-2200.
In this study, the db/db mice (Jackson Laboratory) were orally administered with Compound 1 (100 mg/kg/day) for 28 days. Subsequently, normal mice, db/db-mice, and the Compound 1-treated db/db-mice were subjected to a HOMA-IR test, which was conducted based on a method as described in Biol. Pharm. Bull. 2007; 30:2196-2200. Briefly, mouse insulin enzyme immunoassay ELISA kit was used to measure the plasma insulin concentration. Insulin resistance was determined by the homeostasis model assessment (HOMA) method.

Assay [8] relates to AMP-activated protein kinase (AMPK). The experiment in a line: AMPK phosphorylation assay. Type of assay: cell-based. To be noted: C2C12 myotubes, 0, 1, 3, 10 and 30 μM, 37° C., 1 hour. The method, then:
In this study, differentiated C2C12 mycrotubes (American Type Culture Collection: ATCC) were used to conduct an AMPK phosphorylation assay, which was performed based on the method as described in Experimental and Molecular Medicine, Vol. 39, No. 2, 222-229, 2007. Briefly, the cells were cultured as in Example 1 and incubated with different concentrations of Compound 1 (0, 1, 3, 10 and 30 μM) at 37° C. for 1 hour and then cells were lysed. The cell lysate were immunodetected with phosphor-AMPK specific antibody. […] AMPK activator AICAR (5-amino-4-carboxamide imidazole riboside 5′-phosphate, 1 mM) was used as a positive control.

The subject of a further assay is acetyl CoA carboxylase. Briefly: Acetyl CoA carboxylase (ACC) phosphorylation assay. To be noted: C2C12 mycrotubes, different concentrations. Format: cell-based.
Assay [9] concerns High fat-diet fed (HFD) mice. Briefly: Blood lipid/cholesterol assay in high fat-diet fed mice. The following applies: 100 mg/kg orally for 28 days. Type of assay: in vivo. The method, then:
High fat-diet fed (HFD) mice as a type 2 diabetic model were prepared based on the method as previously described in Diabetes 53 (Suppl. 3):S215-S219, 2004). In this study, mice were fed with a high-fat diet (TestDiet, Richmond, Ind., USA; fat content 60% kcal) for 8 weeks to induce type 2 diabetes. The HFD mice were treated with Compound 1 orally (100 mg/kg) for 28 days; and then normal mice, HFD mice, and the Compound 1-treated HFD mice were analyzed for the levels of serum lipids, including total cholesterol, triglyceride, high-density lipoprotein (HDL)-cholesterol, and low-density lipoprotein (LDL)-cholesterol by ELISA kits.

Setting [10] is: STZ-induced diabetic mice, 100 mg/kg orally for 14 days, glucose 2 g/kg orally.

The values below come from patent US8633252B2, “Use of pterosin compounds for treating diabetes and obesity” (Taipei Medical University, priority 2009, dated 2014).

As for `Cc1cc2c(c(C)c1CCO)C(=O)C(C)(CO)C2` (stereo not shown) [Compound 1, 6-(2-Hydroxy-ethyl)-2-hydroxymethyl-2,5,7-trimethyl-indan-1-one], the “blood glucose levels at 30 minute after glucose uptake” value in [1] (STZ-diabetic mice, 50 mg/kg orally, 2 hours before 1 g/kg oral glucose, 30 min) was “increased only slightly”. For the same compound, the “blood glucose levels 60 minutes after glucose uptake” value in [1] (STZ-diabetic mice, 50 mg/kg orally, 2 hours before 1 g/kg oral glucose, 60 min) is on record as “significantly lowered”. For the same compound, the “blood glucose levels in STZ-induced diabetic mice (glucose tolerance)” value (“blood glucose levels … (glucose tolerance)” for short) in assay [1] (setting [10]) is “significantly lowered blood glucose levels”. Besides, in assay [1] (STZ-induced diabetic mice, 100 mg/kg orally for 14 days, glucose 2 g/kg orally, 45 min), the “blood glucose levels 45 minutes after glucose administration” value was “decreased significantly”. Moreover, the “insulin sensitivity (glucose uptake)” value in the assay with C2C12 mycrotubes [2] was “significantly enhanced the insulin sensitivity”. In addition, the glucose consumption/uptake result with C2C12 mycrotubes [3] was “significantly promote glucose consumption/uptake”. Further, the “redistribution of Glut4 into the cell membrane of soleus muscles” value in [4] was “significantly rescued the redistribution of Glut4”. Also, the “overexpression of PEPCK mRNA in the liver” value in the assay on PEPCK mRNA was “significantly inhibited the overexpression of PEPCK mRNA”. Besides, the “glucose intolerance in db/db-mice” value in the assay on db/db mice [5] is on record as “significantly improved the glucose intolerance”. Moreover, the HbA1C levels result in the assay with db/db mice [6] is “significantly reduced the HbA1C levels”. Besides, the HOMA-IR levels result with db/db mice [7] is on record as “significantly reduced the HOMA-IR levels”. In addition, the “phosphorylation of the AMPK alpha-subunit at Thr172” value (“phosphorylation … at Thr172” for short) in assay [8] is reported as “increased the phosphorylation of the AMPK alpha-subunit at Thr^172 in a dose dependent manner”. For the same compound, in the assay with acetyl CoA carboxylase, the “phosphorylation of acetyl CoA carboxylase at Ser79” value is on record as “increased phosphorylation”. In addition, in assay [9], the anti-obesity effects result is “exhibited anti-obesity effects”. Besides, the serum lipids result in [9] (total cholesterol, triglyceride, HDL- and LDL-cholesterol by ELISA) is recorded as “significantly reduced serum lipids”.

As to `Cc1cc2c(c(C)c1CCO)C(=O)C(C)C2O` (stereo not shown) [Compound 4], the “phosphorylation … at Thr172” value in [8] is reported as “the same effect”.

Consider `Cc1cc2c(c(C)c1CCO)C(=O)C(C)(C)C2O` (stereo not shown) [Compound 7], for which the “blood glucose levels … (glucose tolerance)” value in [1] (setting [10]) is “the same effect”. Further, in the assay on C2C12 mycrotubes [2], the “insulin sensitivity (glucose uptake)” value is reported as “the same effect”. For the same compound, in the assay on db/db mice [7], the HOMA-IR levels result is on record as “the same effect”. Moreover, in [8], the “phosphorylation … at Thr172” value was “the same effect”.

Regarding `Cc1cc2c(c(C)c1CCOC1OC(CO)C(O)C(O)C1O)C(=O)C(C)(C)C2` (stereo not shown) [Compound 52], in [8], the “phosphorylation … at Thr172” value is listed as “the same effect”.

Take `Cc1cc2c(c(C)c1CCO)C(=O)C(C)(C)C2OC1OC(CO)C(O)C(O)C1O` (stereo not shown) [Compound 73]: in assay [1] (setting [10]), the “blood glucose levels … (glucose tolerance)” value is “the same effect”. Also, in the assay on C2C12 mycrotubes [2], the “insulin sensitivity (glucose uptake)” value was “the same effect”. Moreover, the HOMA-IR levels result in the assay with db/db mice [7] is reported as “the same effect”. Further, the “phosphorylation … at Thr172” value in [8] is recorded as “the same effect”.
